Measured values from patent US7462615B2, “Inhibitors of cysteine proteases, the pharmaceutical compositions thereof and their therapeutic applications” (Hybrigenics SA, priority 2005, dated 2008).

What follows are compounds tested against T1, USP7 (Homo sapiens, UniProt Q93009) (assay: USP7 Activity Assay). Conditions: 400 nM Ub-AMC; 152 pM enzyme; pre-incubated 30 minutes at 25° C., 60 minutes at 37° C.; sigmoidal fit; read-out: USP 7 (Inhibition of cysteine protease activities).
T1 construct: His tag (from vector pFastBac-HT) (N); made in house; host or cells: Sf9 or High Five insect cells (baculovirus)
Format: biochemical
Text: The cDNA encoding USP7 was obtained by PCR amplification from placenta mRNA. USP7 cDNA was subcloned by PCR into a baculovirus expression vector (pFastBac-HT; Invitrogen). A cDNA encoding a mutated USP7 was generated by mutagenic PCR. The corresponding protein encodes a cysteine to alanine substitution at residue 223. The sequences were ascertained by sequencing of the entire open reading frame. Bacmids encoding USP7 were generated following DH10bac transposition. The corresponding bacmids were transfected into insect cells (Sf9). Viruses were recovered from culture supernatant and amplified twice. Insect cells (Sf9 or High Five; Invitrogen) were infected for 72 hours. Total cell lysates were harvested and lyzed in lysis buffer (Tris HCl 50 mM pH7.6; 0.75% NP40; 500 mM NaCl; 10% glycerol; 1 mM DTT; 10 mM imidazole; Protease Inhibitor. Cocktail; AEBSF
20 μg.ml^−1; Aprotinin 10 μg.ml^−1). Proteins were affinity purified on metal affinity resins (Talon Metal affinity resin; BD Biosciences). Bound materials were extensively washed in wash buffer (50 mM Sodium Phosphate pH7.0; 300 mM NaCl; 10 mM imidazole; 0.5% Triton X-100; 10% glycerol) and eluted from the resin in 250 mM imidazole-containing wash buffer. Proteins were dialyzed in dialysis buffer (Tris HCl pH 7.6 20 mM; NaCl 200 mM; DTT 1 mM; EDTA 1 mM; 10% Glycerol). Proteins purifications were analyzed on 4-12% NuPAGE (Invitrogen).
USP7 was diluted in USP buffer (50 mM Tris HCl; 0.5 mM EDTA; 5 mM DTT; 0.01% Triton X-100; Bovine Serum Albumin 0.05 mg.ml^−1 pH7.6). Compounds stocks (100 mM) were stored at −20° C. in DMSO. Compounds were tested at the following final concentrations: 100 μM; 33.3 μM; 11.1 μM; 3.7 μM; 1.23 μM; 412 nM; 137 nM; 45.7 nM; 15.2 nM; 5 nM.
Reactions were performed as duplicates in Black LJL 96 well plates (HE microplates; Molecular Devices; 20 μl final reaction volume). The substrate concentration for USP7 was 400 nM Ub-AMC (Chem. Biol., 2003, 10, p. 837-846) (Boston Biochem). The concentrations of the enzyme (USP7) in specificity assays was 152 pM. The concentrations were determined in order to perform specificity assays under initial velocities at fixed substrate concentration. Compounds were pre-incubated with enzymes for 30 minutes at 25° C. Reactions were initiated by addition of substrate to the plates containing the enzymes (+/−compounds) diluted in assay buffer. Reactions were incubated for 60 minutes at 37° C. Reactions were stopped by adding acetic acid (100 mM final). Readings were performed on a Pherastar Fluorescent Reader (BMG). λ Emission 380 nm; λ Excitation=460 nm. Data (mean values +/−standard deviation) were analyzed as % of control (no compound) and plotted as percentage versus the Log of the compound concentration using GraphPad (Prism). Data were fitted to a sigmoidal model (variable slope).

T1 sequence (Q93009 whole entry): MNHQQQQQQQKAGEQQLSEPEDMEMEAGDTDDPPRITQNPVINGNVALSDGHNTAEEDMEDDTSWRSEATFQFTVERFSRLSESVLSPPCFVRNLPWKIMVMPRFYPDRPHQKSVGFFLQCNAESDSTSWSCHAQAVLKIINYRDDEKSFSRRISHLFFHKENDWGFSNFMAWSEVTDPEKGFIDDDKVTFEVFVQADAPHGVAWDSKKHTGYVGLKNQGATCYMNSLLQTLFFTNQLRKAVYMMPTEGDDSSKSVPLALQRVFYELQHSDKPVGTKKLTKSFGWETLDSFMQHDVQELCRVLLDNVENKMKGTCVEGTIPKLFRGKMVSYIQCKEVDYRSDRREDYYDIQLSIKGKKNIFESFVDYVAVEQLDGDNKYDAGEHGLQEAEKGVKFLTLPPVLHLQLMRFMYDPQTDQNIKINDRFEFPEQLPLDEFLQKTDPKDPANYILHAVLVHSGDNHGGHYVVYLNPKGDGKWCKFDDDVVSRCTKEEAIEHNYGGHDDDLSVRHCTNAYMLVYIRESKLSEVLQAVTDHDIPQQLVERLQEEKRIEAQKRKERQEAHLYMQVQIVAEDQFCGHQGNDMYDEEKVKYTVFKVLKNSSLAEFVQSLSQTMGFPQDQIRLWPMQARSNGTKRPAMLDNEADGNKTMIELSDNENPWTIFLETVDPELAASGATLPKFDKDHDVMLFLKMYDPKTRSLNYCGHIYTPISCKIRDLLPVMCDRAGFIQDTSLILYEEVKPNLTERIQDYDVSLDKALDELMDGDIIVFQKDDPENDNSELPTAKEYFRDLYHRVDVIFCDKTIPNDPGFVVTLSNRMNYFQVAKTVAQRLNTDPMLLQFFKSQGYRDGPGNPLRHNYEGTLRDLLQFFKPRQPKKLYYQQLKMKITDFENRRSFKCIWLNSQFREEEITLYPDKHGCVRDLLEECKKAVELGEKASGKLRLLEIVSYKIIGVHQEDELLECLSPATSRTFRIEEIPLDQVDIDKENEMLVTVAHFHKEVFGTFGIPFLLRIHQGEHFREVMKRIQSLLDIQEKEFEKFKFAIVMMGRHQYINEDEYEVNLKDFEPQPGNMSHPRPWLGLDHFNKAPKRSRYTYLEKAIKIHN

Compound | IC50 [nM]
6-(7)-Chloro-1-methyl-2,3,4,10,10a-pentaaza-cyclopenta[b]fluoren-9-one [Example 3/A] | 2800
Cc1nnc2nc3c(nn12)-c1ccccc1C3=O [Example 1b/B, 3-Methyl-1,2,3a,4,10-pentaaza-cyclopenta[b]fluoren-9-one] | 550
Nc1nnc2nc3c(nn12)-c1ccccc1C3=O [Example 1c/B, 3-Amino-1,2,3a,4,10-pentaaza-cyclopenta[b]fluoren-9-one] | 700
CCCc1nnc2nc3c(nn12)-c1ccccc1C3=O [Example 1e/B, 3-Propyl-1,2,3a, 4,10-pentaaza-cyclopenta[b]fluoren-9-one] | 662
CCCCc1nnc2nc3c(nn12)C(=O)c1ccccc1-3 [Example 1f/A, 1-Butyl-2,3,4,10,10a-pentaaza-cyclopenta[b]fluoren-9-one] | 23000
CCCCc1nnc2nc3c(nn12)-c1ccccc1C3=O [Example 1f/B, 3-Butyl-1,2,3a,4,10-pentaaza-cyclopenta[b]fluoren-9-one] | 604
O=C1c2ccccc2-c2nn3c(CO)nnc3nc21 [Example 1h/B] | 1610
O=C1c2ccccc2-c2nn3c(C4CC4)nnc3nc21 [Example 1j/B, 3-Cyclopropyl-1,2,3a,4,10-pentaaza-cyclopenta[b]fluoren-9-one] | 207
Cc1nnc2nc3c(nn12)-c1ccc(Cl)cc1C3=O [Example 3/B, 7-Chloro-3-methyl-1,2,3a, 4,10-pentaaza-cyclopenta[b]fluoren-9-one] | 522
Cn1nc2nc3c(nc2n1)-c1ccccc1C3=O [Example 4a, 2-Methyl-2H-1,2,3,4,10-pentaaza-cyclopenta[b]fluoren-9-one] | 51000

Now from value to compound:

IC50 [nM] | Compound
16700 | Cc1nnc2nc3c(nn12)C(=O)c1ccccc1-3 [Example 1b/A, 1-Methyl-2,3,4,10,10a-pentaaza-cyclopenta[b]fluoren-9-one]
15300 | Nc1nnc2nc3c(nn12)C(=O)c1ccccc1-3 [Example 1c/A, 1-Amino-2,3,4,10,10a-pentaaza-cyclopenta[b]fluoren-9-one]
16500 | CCc1nnc2nc3c(nn12)C(=O)c1ccccc1-3 [Example 1d/A, 1-Ethyl-2,3,4,10,10a-pentaaza-cyclopenta[b]fluoren-9-one]
225 | CCc1nnc2nc3c(nn12)-c1ccccc1C3=O [Example 1d/B, 3-Ethyl-1,2,3a, 4,10-pentaaza-cyclopenta[b]fluoran-9-one]
789 | CC(C)Cc1nnc2nc3c(nn12)-c1ccccc1C3=O [Example 1g/B, 3-Isobutyl-1,2,3a,4,10-pentaaza-cyclopenta[b]fluoren-9-one]
9700 | O=C1c2ccccc2-c2nc3nnc(CO)n3nc21 [Example 1h/A, 1-Hydroxymethyl-2,3,4,10,10a-pentaaza-cyclopenta[b]fluoren-9-one]
461 | COCc1nnc2nc3c(nn12)-c1ccccc1C3=O [Example 1i/B, 3-Methoxymethyl-1,2,3a, 4,10-pentaaza-cyclopenta[b]fluoren-9-one]
3300 | O=C1c2ccccc2-c2nc3nnc(Cc4ccccc4)n3nc21 [Example 1k/A, 1-Benzyl-2,3,4,10,10a-pentaaza-cyclopenta[b]fluoren-9-one]
425 | O=C1c2ccccc2-c2nn3c(Cc4ccccc4)nnc3nc21 [Example 1k/B, 3-Benzyl-1,2,3a,4,10-pentaaza-cyclopenta[b]fluoren-9-one]
